Laboratory results as given in patent US8846669B2, “Oxazolidinone derivative and medical composition containing same” (Legochem Biosciences, Inc., priority 2011, dated 2014).
Converted amounts (≈) assume the structure as drawn. Where two headings read alike, the source gives them in different places.

Tests used:
Test in all cases: In vitro antibacterial activity, broth microdilution MIC90
Format in all cases: cell-based
[1] = test system: Methicillin Resistant Staphylococcus epidermidis
Method: (§1) MIC90 was measured by broth microdilution method based on CLSI standards [reference: Clinical and Laboratory Standards Institute Document. (2000) Methods for Dilution Antimicrobial Susceptibility Test for Bacteria that Grow Aerobically-Fifth Edition: M7-A5. CLSI, Villanova, Pa.].
(§2) Activities of 12 strains including Staphylococcus aureus, Methicillin Resistant Staphylococcus aureus, Staphylococcus epidermidis, Methicillin Resistant Staphylococcus epidermidis, Enterococcus faecalis, Vancomycin Resistant Enterococcus faecalis, Linezolid and Vancomycin Resistant Enterococcus faecalis, Enterococcus faecium, Vancomycin Resistant Enterococcus faecium, Linezolid and Vancomycin Resistant Enterococcus faecium, and Moraxella catarrhalis, were measured, and results are shown in Table 1 below.
(§3) The final concentration of test material in the antibacterial test was from 0.063 μg/mL (minimum) to 128 μg/mL (maximum), and the final concentration of DMSO used as an excipient was 2.5% (V/V). Linezolid represented by Formula B below (manufactured by Pfizer) was used as a control and bacterial activity thereof was compared with those of the test materials.

Enterococcus faecium = test system: Enterococcus faecium
Method: as §1, §2, §3

[2] = test system: Linezolid and Vancomycin Resistant Enterococcus faecium (strain 10)
Method: as §1, §2, §3

[3] = test system: Methicillin Resistant Staphylococcus aureus
Method: as §1, §2, §3

[4] = test system: Linezolid and Vancomycin Resistant Enterococcus faecalis
Method: as §1, §2, §3

[5] = test system: Staphylococcus epidermidis
Method: as §1, §2, §3

[6] = test system: Linezolid and Vancomycin Resistant Enterococcus faecium (strain 11)
Method: as §1, §2, §3

[7] = test system: Vancomycin Resistant Enterococcus faecalis
Method: as §1, §2, §3

Moraxella catarrhalis = test system: Moraxella catarrhalis
Method: as §1, §2, §3

Enterococcus faecalis = test system: Enterococcus faecalis
Method: as §1, §2, §3

[8] = test system: Vancomycin Resistant Enterococcus faecium
Method: as §1, §2, §3

Staphylococcus aureus = test system: Staphylococcus aureus
Method: as §1, §2, §3

[9] = Staphylococcus epidermidis, strain 4, S. epidermidis MR, read-out: MIC90
[10] = Enterococcus faecium, strain 8, E. faecium, read-out: MIC90
[11] = Enterococcus faecium, strain 10, E. faecium VanA LR, read-out: MIC90
[12] = Staphylococcus aureus, strain 2, S. aureus MR, read-out: MIC90
[13] = Enterococcus faecalis, strain 7, E. faecalis VanA LR, read-out: MIC90
[14] = Staphylococcus epidermidis, strain 3, S. epidermidis, read-out: MIC90
[15] = Enterococcus faecium, strain 11, E. faecium VanA LR, read-out: MIC90
[16] = Enterococcus faecalis, strain 6, E. faecalis VanA, read-out: MIC90
[17] = Moraxella catarrhalis, strain 12, M. catarrhalis, read-out: MIC90
[18] = Enterococcus faecalis, strain 5, E. faecalis, read-out: MIC90
[19] = Enterococcus faecium, strain 9, E. faecium VanA, read-out: MIC90
[20] = Staphylococcus aureus, strain 1, S. aureus, read-out: MIC90

MIC90 [1, 9] [µg/mL] | MIC90 (Enterococcus faecium; [10]) [µg/mL] | MIC90 [2, 11] [µg/mL] | MIC90 [3, 12] [µg/mL] | MIC90 [4, 13] [µg/mL] | MIC90 [5, 14] [µg/mL] | MIC90 [6, 15] [µg/mL] | MIC90 [7, 16] [µg/mL] | SMILES | MIC90 ([1]; Staphylococcus epidermidis) [µg/mL] | MIC90 (Enterococcus faecium; Enterococcus faecium) [µg/mL] | MIC90 ([2]; Enterococcus faecium) [µg/mL] | MIC90 ([3]; Staphylococcus aureus) [µg/mL] | MIC90 ([4]; Enterococcus faecalis) [µg/mL] | MIC90 ([5]; Staphylococcus epidermidis) [µg/mL] | MIC90 ([6]; Enterococcus faecium) [µg/mL] | MIC90 ([7]; Enterococcus faecalis) [µg/mL] | MIC90 (Moraxella catarrhalis; Moraxella catarrhalis) [µg/mL] | MIC90 (Enterococcus faecalis; Enterococcus faecalis) [µg/mL] | MIC90 ([8]; Enterococcus faecium) [µg/mL] | MIC90 (Staphylococcus aureus; Staphylococcus aureus) [µg/mL] | other results
– | – | – | – | – | – | – | – | CCN1CCN(c2ccc(-c3ccc(N4C[C@H](CO)OC4=O)cc3F)cn2)C=N1 [Compound 29] | 8 (≈ 20 µM) | 8 (≈ 20 µM) | 64 (≈ 160 µM) | 8 (≈ 20 µM) | 64 (≈ 160 µM) | 4 (≈ 10 µM) | 64 (≈ 160 µM) | 16 (≈ 40.1 µM) | 32 (≈ 80.1 µM) | 16 (≈ 40.1 µM) | 8 (≈ 20 µM) | 8 (≈ 20 µM) | –
0.5 (≈ 1.21 µM) | 0.125 (≈ 0.302 µM) | 1 (≈ 2.42 µM) | 0.5 (≈ 1.21 µM) | 1 (≈ 2.42 µM) | 0.25 (≈ 0.605 µM) | 2 (≈ 4.84 µM) | 0.25 (≈ 0.605 µM) | CC(=O)NC[C@H]1CN(c2ccc(-c3ccc(N4C=NOCC4)nc3)c(F)c2)C(=O)O1 [Compound 57] | – | – | – | – | – | – | – | – | – | – | – | – | MIC90 (Moraxella catarrhalis; [17]): 2 µg/mL (≈ 4.84 µM); MIC90 (Enterococcus faecalis; [18]): 0.25 µg/mL (≈ 0.605 µM); MIC90 [8, 19]: 0.125 µg/mL (≈ 0.302 µM); MIC90 (Staphylococcus aureus; [20]): 0.25 µg/mL (≈ 0.605 µM)
– | – | – | – | – | – | – | – | O=C(C(O)CO)N1CCN(c2ccc(-c3ccc(N4C[C@H](COc5ccon5)OC4=O)cc3F)cn2)C=N1 (stereo partly drawn) [Compound 50] | – | – | – | – | – | – | – | – | – | – | – | – | MIC90 ([1]; strain 4, S. epidermidis MR): 4 µg/mL (≈ 7.6 µM); MIC90 (Enterococcus faecium; strain 8, E. faecium): 0.5 µg/mL (≈ 0.95 µM); MIC90 ([2]; strain 10, E. faecium VanA LR): 16 µg/mL (≈ 30.4 µM); MIC90 ([3]; strain 2, S. aureus MR): 1 µg/mL (≈ 1.9 µM); MIC90 ([4]; strain 7, E. faecalis VanA LR): 16 µg/mL (≈ 30.4 µM); MIC90 ([5]; strain 3, S. epidermidis): 1 µg/mL (≈ 1.9 µM); MIC90 ([6]; strain 11, E. faecium VanA LR): 32 µg/mL (≈ 60.8 µM); MIC90 ([7]; strain 6, E. faecalis VanA): 4 µg/mL (≈ 7.6 µM); MIC90 (Moraxella catarrhalis; strain 12, M. catarrhalis): >128 µg/mL; MIC90 (Enterococcus faecalis; strain 5, E. faecalis): 2 µg/mL (≈ 3.8 µM); MIC90 ([8]; strain 9, E. faecium VanA): 2 µg/mL (≈ 3.8 µM); MIC90 (Staphylococcus aureus; strain 1, S. aureus): 0.5 µg/mL (≈ 0.95 µM)
– | – | – | – | – | – | – | – | CC(=O)NC[C@H]1CN(c2ccc(-c3ccc(N4C=NN(C(=O)CN)CC4)nc3)c(F)c2)C(=O)O1 [Compound 19] | 0.5 (≈ 1.07 µM) | 0.25 (≈ 0.533 µM) | 2 (≈ 4.26 µM) | 0.5 (≈ 1.07 µM) | 2 (≈ 4.26 µM) | 0.25 (≈ 0.533 µM) | 2 (≈ 4.26 µM) | 0.5 (≈ 1.07 µM) | 1 (≈ 2.13 µM) | 0.5 (≈ 1.07 µM) | 0.5 (≈ 1.07 µM) | 0.25 (≈ 0.533 µM) | –
– | – | – | – | – | – | – | – | O=C(CO)N1CCN(c2ccc(-c3ccc(N4C[C@H](COc5ccon5)OC4=O)cc3F)cn2)C=N1 [Compound 46] | – | – | – | – | – | – | – | – | – | – | – | – | MIC90 ([1]; strain 4, S. epidermidis MR): 32 µg/mL (≈ 64.5 µM); MIC90 (Enterococcus faecium; strain 8, E. faecium): 0.5 µg/mL (≈ 1.01 µM); MIC90 ([2]; strain 10, E. faecium VanA LR): 128 µg/mL (≈ 258 µM); MIC90 ([3]; strain 2, S. aureus MR): 0.5 µg/mL (≈ 1.01 µM); MIC90 ([4]; strain 7, E. faecalis VanA LR): 128 µg/mL (≈ 258 µM); MIC90 ([5]; strain 3, S. epidermidis): 0.5 µg/mL (≈ 1.01 µM); MIC90 ([6]; strain 11, E. faecium VanA LR): >128 µg/mL; MIC90 ([7]; strain 6, E. faecalis VanA): 4 µg/mL (≈ 8.06 µM); MIC90 (Moraxella catarrhalis; strain 12, M. catarrhalis): >128 µg/mL; MIC90 (Enterococcus faecalis; strain 5, E. faecalis): 2 µg/mL (≈ 4.03 µM); MIC90 ([8]; strain 9, E. faecium VanA): 2 µg/mL (≈ 4.03 µM); MIC90 (Staphylococcus aureus; strain 1, S. aureus): 0.25 µg/mL (≈ 0.504 µM)
– | – | – | – | – | – | – | – | NCC(=O)N1CCN(c2ccc(-c3ccc(N4C[C@H](CNc5ccon5)OC4=O)cc3F)cn2)C=N1 [Compound 42] | – | – | – | – | – | – | – | – | – | – | – | – | MIC90 ([1]; strain 4, S. epidermidis MR): 2 µg/mL (≈ 4.04 µM); MIC90 (Enterococcus faecium; strain 8, E. faecium): 0.125 µg/mL (≈ 0.253 µM); MIC90 ([2]; strain 10, E. faecium VanA LR): 4 µg/mL (≈ 8.09 µM); MIC90 ([3]; strain 2, S. aureus MR): 0.5 µg/mL (≈ 1.01 µM); MIC90 ([4]; strain 7, E. faecalis VanA LR): 2 µg/mL (≈ 4.04 µM); MIC90 ([5]; strain 3, S. epidermidis): 0.5 µg/mL (≈ 1.01 µM); MIC90 ([6]; strain 11, E. faecium VanA LR): 4 µg/mL (≈ 8.09 µM); MIC90 ([7]; strain 6, E. faecalis VanA): 1 µg/mL (≈ 2.02 µM); MIC90 (Moraxella catarrhalis; strain 12, M. catarrhalis): 2 µg/mL (≈ 4.04 µM); MIC90 (Enterococcus faecalis; strain 5, E. faecalis): 0.5 µg/mL (≈ 1.01 µM); MIC90 ([8]; strain 9, E. faecium VanA): 0.5 µg/mL (≈ 1.01 µM); MIC90 (Staphylococcus aureus; strain 1, S. aureus): 0.25 µg/mL (≈ 0.506 µM)
2 (≈ 4.68 µM) | 1 (≈ 2.34 µM) | 4 (≈ 9.36 µM) | 2 (≈ 4.68 µM) | 2 (≈ 4.68 µM) | 0.5 (≈ 1.17 µM) | 4 (≈ 9.36 µM) | 1 (≈ 2.34 µM) | CC(=O)NC[C@H]1CN(c2ccc(-c3ccc(C4=NOCCN4C)nc3)c(F)c2)C(=O)O1 [Compound 69] | – | – | – | – | – | – | – | – | – | – | – | – | MIC90 (Moraxella catarrhalis; [17]): 8 µg/mL (≈ 18.7 µM); MIC90 (Enterococcus faecalis; [18]): 1 µg/mL (≈ 2.34 µM); MIC90 [8, 19]: 1 µg/mL (≈ 2.34 µM); MIC90 (Staphylococcus aureus; [20]): 0.5 µg/mL (≈ 1.17 µM)
– | – | – | – | – | – | – | – | O=C1O[C@@H](Cn2ccnn2)CN1c1ccc(-c2ccc(N3C=NNCC3)nc2)c(F)c1 [Compound 30] | 2 (≈ 4.73 µM) | 0.25 (≈ 0.592 µM) | 2 (≈ 4.73 µM) | 1 (≈ 2.37 µM) | 4 (≈ 9.47 µM) | 0.5 (≈ 1.18 µM) | 2 (≈ 4.73 µM) | 1 (≈ 2.37 µM) | 4 (≈ 9.47 µM) | 0.5 (≈ 1.18 µM) | 0.5 (≈ 1.18 µM) | 0.25 (≈ 0.592 µM) | –
4 (≈ 10.4 µM) | 2 (≈ 5.18 µM) | 8 (≈ 20.7 µM) | 4 (≈ 10.4 µM) | 16 (≈ 41.4 µM) | 2 (≈ 5.18 µM) | 16 (≈ 41.4 µM) | 2 (≈ 5.18 µM) | CN1CCON=C1c1ccc(-c2ccc(N3C[C@H](CO)OC3=O)cc2F)cn1 [Compound 71] | – | – | – | – | – | – | – | – | – | – | – | – | MIC90 (Moraxella catarrhalis; [17]): 8 µg/mL (≈ 20.7 µM); MIC90 (Enterococcus faecalis; [18]): 4 µg/mL (≈ 10.4 µM); MIC90 [8, 19]: 2 µg/mL (≈ 5.18 µM); MIC90 (Staphylococcus aureus; [20]): 2 µg/mL (≈ 5.18 µM)
